Test results published in patent publication US20240131168A1, “NAPHTHALENE RING-CONTAINING COMPOUND, PHARMACEUTICAL COMPOSITION CONTAINING SAME, AND USE THEREOF” (JIANGSU YAHONG MEDITECH CO., LTD., priority 2021, published 2024).
pIC50: −log10 of the molar value.

Assays:
Type in all cases: cell-based
MCF-7 = test: CellTiter-Glo cell proliferation inhibition, MCF-7 (Effect Example 2); details: Homo sapiens, MCF7, 144 h, MCF-7 (CTG), 6 days, starting concentration 10 μM; for inhibition at up to 10 µM: read-out: IH % max (maximum inhibition percentage)
How it was run: (§1)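 MCF-7, TamR-MCF-7, and CRISPR-edited MCF-7 ER D538G or Y537S cells were seeded at 1,000 or 2,000 cells/well in EMEM and cultured 24 h. They were then exposed to a 4-fold, 10-point series (top 10 µM before addition to wells) for 6 days or 72 h at 37 °C. CellTiter-Glo luminescence gave IC50 and maximum % inhibition.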

TamR-MCF-7 = test: CellTiter-Glo cell proliferation inhibition, TamR-MCF-7; details: 144 h; TamR-MCF-7 (CTG), 6 days, starting concentration 10 μM; read-out: IH % max (maximum inhibition percentage)
How it was run: as §1

MCF-7 ER^D538G = test: CellTiter-Glo cell proliferation inhibition, MCF-7 ER^D538G; details: Homo sapiens, MCF7, 144 h, MCF-7 ER^D538G (CTG), 6 days, starting concentration 10 μM; for inhibition at up to 10 µM: read-out: IH % max (maximum inhibition percentage)
How it was run: as §1

MCF-7 ER^Y537S = test: CellTiter-Glo cell proliferation inhibition, MCF-7 ER^Y537S; details: Homo sapiens, MCF7, 144 h; MCF-7 ER^Y537S (CTG), 6 days, starting concentration 10 μM; read-out: IH % max (maximum inhibition percentage)
How it was run: as §1

MDA-MB-468 = test: CellTiter-Glo cell proliferation inhibition, MDA-MB-468; details: Homo sapiens, 144 h; MDA-MB-468 (CTG), 6 days, starting concentration 10 μM; read-out: IH % max (maximum inhibition percentage)
MDA-MB-231 = test: CellTiter-Glo cell proliferation inhibition, MDA-MB-231; details: Homo sapiens, 144 h; MDA-MB-231 (CTG), 6 days, starting concentration 10 μM; read-out: IH % max (maximum inhibition percentage)

CCN(CCOc1ccc(Oc2c(-c3ccc(S(C)(=O)=O)cc3)ccc3cc(O)ccc23)cc1)CC(=O)N1CCN(c2ccc3c(c2)C(=O)N(C2CCC(=O)NC2=O)C3=O)CC1 (stereo not shown) [Compound D8, 2-(2,6-dioxopiperidin-3-yl)-5-(4-(N-ethyl-N-(2-(4-((6-hydroxy-2-(4-(methylsulfonyl)phenyl)naphthalen-1-yl)oxy)phenoxy)ethyl)glycyl)piperazin-1-yl)isoindoline-1,3-dione]
inhibition at up to 10 µM (MCF-7): 56% | inhibition at up to 10 µM (TamR-MCF-7): 35% | inhibition at up to 10 µM (MCF-7 ER^D538G): 44% | inhibition at up to 10 µM (MCF-7 ER^Y537S): 33% | inhibition at up to 10 µM (MDA-MB-468): 68%

C[C@@H]1CN(CCOc2ccc(Oc3c(-c4ccc(S(C)(=O)=O)cc4)ccc4cc(O)ccc34)cc2)[C@@H](C)CN1CCOCC(=O)N1CCN(c2ccc3c(c2)CN(C2CCC(=O)NC2=O)C3=O)CC1 (stereo partly drawn) [Compound D9, 3-(5-(4-(2-(2-((2R,5S)-4-(2-(4-((6-hydroxy-2-(4-(methylsulfonyl)phenyl)naphthalen-1-yl)oxy)phenoxy)ethyl)-2,5-dimethylpiperazin-1-yl)ethoxy)acetyl)piperazin-1-yl)-1-oxoisoindolin-2-yl)piperidine-2,6-dione]
pIC50 (MCF-7): 6.62 | inhibition at up to 10 µM (MCF-7): 60% | inhibition at up to 10 µM (TamR-MCF-7): 31% | pIC50 (MCF-7 ER^D538G): 6.02 | inhibition at up to 10 µM (MCF-7 ER^D538G): 65% | inhibition at up to 10 µM (MCF-7 ER^Y537S): 34% | inhibition at up to 10 µM (MDA-MB-468): 60%

CS(=O)(=O)c1ccc(-c2ccc3cc(O)ccc3c2Oc2ccc(N3CCN(CCCCCOCC(=O)N4CCN(c5ccc6c(c5)CN(C5CCC(=O)NC5=O)C6=O)CC4)CC3)cc2)cc1 (stereo not shown) [Compound D11, 3-(5-(4-(2-((5-(4-(4-((6-hydroxy-2-(4-(methylsulfonyl)phenyl)naphthalen-1-yl)oxy)phenyl)piperazin-1-yl)pentyl)oxy)acetyl)piperazin-1-yl)-1-oxoisoindolin-2-yl)piperidine-2,6-dione]
inhibition at up to 10 µM (MCF-7): 45% | pIC50 (MCF-7 ER^D538G): 6.10 | inhibition at up to 10 µM (MCF-7 ER^D538G): 54% | inhibition at up to 10 µM (MCF-7 ER^Y537S): 52%

C[C@@H]1CN(CCOCC(=O)N2CCN(c3ccc4c(c3)C(=O)N(C3CCC(=O)NC3=O)C4=O)CC2)[C@@H](C)CN1CCOc1ccc(Oc2c(-c3ccc(S(C)(=O)=O)cc3)ccc3cc(O)ccc23)cc1 (stereo partly drawn) [Compound D15, 2-(2,6-dioxopiperidin-3-yl)-5-(4-(2-(2-((2S,5R)-4-(2-(4-((6-hydroxy-2-(4-(methylsulfonyl)phenyl)naphthalen-1-yl)oxy)phenoxy)ethyl)-2,5-dimethylpiperazin-1-yl)ethoxy)acetyl)piperazin-1-yl)isoindoline-1,3-dione]
pIC50 (MCF-7): 6.31 | inhibition at up to 10 µM (MCF-7): 51% | inhibition at up to 10 µM (MCF-7 ER^D538G): 48% | inhibition at up to 10 µM (MCF-7 ER^Y537S): 46%

CS(=O)(=O)c1ccc(-c2ccc3cc(O)ccc3c2Oc2ccc(OCCOCCOCCOCCN3CCN(c4ccc5c(c4)C(=O)N(C4CCC(=O)NC4=O)C5=O)CC3)cc2)cc1 (stereo not shown) [Compound D19]
inhibition at up to 10 µM (MCF-7): 44% | inhibition at up to 10 µM (TamR-MCF-7): 39% | inhibition at up to 10 µM (MCF-7 ER^D538G): 73%

CS(=O)(=O)c1ccc(-c2ccc3cc(O)ccc3c2Oc2ccc(OCCOCCOCCOCCN3CCN(c4ccc5c(c4)C(=O)N(C4CCC(=O)NC4=O)C5)CC3)cc2)cc1 (stereo not shown) [Compound D21]
inhibition at up to 10 µM (MCF-7): 44% | inhibition at up to 10 µM (MCF-7 ER^D538G): 55%

CS(=O)(=O)c1ccc(-c2ccc3cc(O)ccc3c2Oc2ccc(OCCOCCOCCN3CCN(c4ccc5c(c4)C(=O)N(C4CCC(=O)NC4=O)C5)CC3)cc2)cc1 (stereo not shown) [Compound D22, 3-(6-(4-(2-(2-(2-(4-((6-hydroxy-2-(4-(methylsulfonyl)phenyl)naphthalen-1-yl)oxy)phenoxy)ethoxy)ethoxy)ethyl)piperazin-1-yl)-1-oxoisoindolin-2-yl)piperidine-2,6-dione]
inhibition at up to 10 µM (MCF-7): 38% | inhibition at up to 10 µM (TamR-MCF-7): 33% | inhibition at up to 10 µM (MCF-7 ER^D538G): 61% | inhibition at up to 10 µM (MDA-MB-231): 36%

CCN(CCOCCOCCN1CCN(c2ccc3c(c2)C(=O)N(C2CCC(=O)NC2=O)C3=O)CC1)CCOc1ccc(Oc2c(-c3ccc(S(C)(=O)=O)cc3)ccc3cc(O)ccc23)cc1 (stereo not shown) [Compound D28, 2-(2,6-dioxopiperidin-3-yl)-5-(4-(2-(2-(2-(ethyl(2-(4-((6-hydroxy-2-(4-(methylsulfonyl)phenyl)naphthalen-1-yl)oxy)phenoxy)ethyl)amino)ethoxy)ethoxy)ethyl)piperazin-1-yl)isoindoline-1,3-dione]
pIC50 (MCF-7): 6.67 | inhibition at up to 10 µM (MCF-7): 53% | inhibition at up to 10 µM (TamR-MCF-7): 42% | pIC50 (MCF-7 ER^D538G): 6.25 | inhibition at up to 10 µM (MCF-7 ER^D538G): 81% | inhibition at up to 10 µM (MCF-7 ER^Y537S): 49% | inhibition at up to 10 µM (MDA-MB-231): 68%

CS(=O)(=O)c1ccc(-c2ccc3cc(O)ccc3c2Oc2ccc(OCCOCCOCCN3CCN(c4ccc5c(c4)CN(C4CCC(=O)NC4=O)C5=O)CC3)cc2)cc1 (stereo not shown) [Compound D30]
pIC50 (MCF-7): 6.27 | inhibition at up to 10 µM (MCF-7): 55% | inhibition at up to 10 µM (TamR-MCF-7): 30% | inhibition at up to 10 µM (MCF-7 ER^D538G): 65%

CCN(CCCCCN(C)CC(=O)N1CCN(c2ccc3c(c2)C(=O)N(C2CCC(=O)NC2=O)C3=O)CC1)CCOc1ccc(Oc2c(-c3ccc(S(C)(=O)=O)cc3)ccc3cc(O)ccc23)cc1 (stereo not shown) [Compound D31, 2-(2,6-dioxopiperidin-3-yl)-5-(4-(N-(5-(ethyl(2-(4-((6-hydroxy-2-(4-(methylsulfonyl))phenyl)naphthalen-1-yl)oxy)phenoxy)ethyl)aminopentyl)-N-methylglycyl)piperazin-1-yl)isoindoline-1,3-dione]
inhibition at up to 10 µM (MCF-7): 32% | inhibition at up to 10 µM (MCF-7 ER^D538G): 90% | inhibition at up to 10 µM (MCF-7 ER^Y537S): 73% | inhibition at up to 10 µM (MDA-MB-231): 56% | inhibition at up to 10 µM (MDA-MB-468): 100%

CCN(CCOc1ccc(Oc2c(-c3ccc(S(C)(=O)=O)cc3)ccc3cc(O)ccc23)cc1)C(=O)c1ccc(CCC2CCN(C3CCN(c4ccc5c(c4)C(=O)N(C4CCC(=O)NC4=O)C5=O)CC3)CC2)cc1 (stereo not shown) [Compound D34, 4-(2-(1′-(2-(2,6-dioxopiperidin-3-yl)-1,3-dioxoisoindolin-5-yl)-[1,4′-bipiperidin]-4-yl)ethyl)-N-ethyl-N-(2-(4-((6-hydroxy-2-(4-(methylsulfonyl)phenyl)naphthalen-1-yl)oxy)phenoxy)ethyl)benzamide]
pIC50 (MCF-7): 7.16 | inhibition at up to 10 µM (MCF-7): 52% | inhibition at up to 10 µM (TamR-MCF-7): 41% | pIC50 (MCF-7 ER^D538G): 6.74 | inhibition at up to 10 µM (MCF-7 ER^D538G): 82% | inhibition at up to 10 µM (MCF-7 ER^Y537S): 60% | inhibition at up to 10 µM (MDA-MB-231): 37%

CS(=O)(=O)c1ccc(-c2ccc3cc(O)ccc3c2Oc2ccc(OCCOCCOCCOCCOc3ccc4c(c3)C(=O)N(C3CCC(=O)NC3=O)C4)cc2)cc1 (stereo not shown) [Compound D35, 3-(6-(2-(2-(2-(2-(4-((6-hydroxy-2-(4-(methylsulfonyl)phenyl)naphthalen-1-yl)oxy)phenoxy)ethoxy)ethoxy)ethoxy)ethoxy)-1-oxoisoindolin-2-yl)piperidine-2,6-dione]
inhibition at up to 10 µM (MCF-7): 45% | inhibition at up to 10 µM (MCF-7 ER^D538G): 39%

CS(=O)(=O)c1ccc(-c2ccc3cc(O)ccc3c2Oc2ccc(OCCCCN3CCN(c4ccc5c(c4)CN(C4CCC(=O)NC4=O)C5=O)CC3)cc2)cc1 (stereo not shown) [Compound D59, 3-(5-(4-(4-(4-((6-hydroxy-2-(4-(methylsulfonyl)phenyl)naphthalen-1-yl)oxy)phenoxy)butyl)piperazin-1-yl)-1-oxoisoindolin-2-yl)piperidine-2,6-dione]
inhibition at up to 10 µM (MCF-7): 37%
